From the NIST ThermoML archive (doi:10.1016/j.fluid.2010.10.022)
± gives the expanded uncertainty stated by the source.

Test: excess molar enthalpy (molar enthalpy of mixing); xn = mol fraction of the nth substance listed
Conditions: 298.15 K, 101 kPa, Liquid, Flow calorimetry

`CC#CCCC` [2-hexyne] + CCCOC(C)=O gave an excess molar enthalpy (x2 = 0.1094) of 0.0106 ± 0.00239 kcal/mol, an excess molar enthalpy (x2 = 0.204) of 0.0174 ± 0.00239 kcal/mol and an excess molar enthalpy (x2 = 0.3153) of 0.022 ± 0.00239 kcal/mol. For the same compound, the excess molar enthalpy (x2 = 0.4179) was 0.0249 ± 0.00239 kcal/mol, the excess molar enthalpy (x2 = 0.5044) was 0.0245 ± 0.00239 kcal/mol and the excess molar enthalpy (x2 = 0.5938) was 0.0215 ± 0.00239 kcal/mol. The excess molar enthalpy (x2 = 0.7075) was 0.0157 ± 0.00239 kcal/mol, the excess molar enthalpy (x2 = 0.7983) was 0.0108 ± 0.00239 kcal/mol and the excess molar enthalpy (x2 = 0.8927) was 0.00645 ± 0.00239 kcal/mol.

Work on `CCC#CCC` [3-hexyne] + CCCOC(C)=O yielded an excess molar enthalpy (x2 = 0.0968) of 0.0105 ± 0.00239 kcal/mol, an excess molar enthalpy (x2 = 0.202) of 0.0186 ± 0.00239 kcal/mol and an excess molar enthalpy (x2 = 0.3025) of 0.0269 ± 0.00239 kcal/mol. For the same compound, the excess molar enthalpy (x2 = 0.4063) was 0.0341 ± 0.00239 kcal/mol, the excess molar enthalpy (x2 = 0.4979) was 0.0377 ± 0.00239 kcal/mol and the excess molar enthalpy (x2 = 0.5956) was 0.0353 ± 0.00239 kcal/mol. For the same compound, the excess molar enthalpy (x2 = 0.7045) was 0.0267 ± 0.00239 kcal/mol, the excess molar enthalpy (x2 = 0.7995) was 0.0182 ± 0.00239 kcal/mol and the excess molar enthalpy (x2 = 0.8928) was 0.0101 ± 0.00239 kcal/mol.

Compound `C#CCCCC` [1-hexyne] + CCCOC(C)=O has an excess molar enthalpy (x2 = 0.1079) of -0.0304 ± 0.00239 kcal/mol, an excess molar enthalpy (x2 = 0.1967) of -0.0477 ± 0.00239 kcal/mol and an excess molar enthalpy (x2 = 0.3032) of -0.0608 ± 0.00239 kcal/mol. It also gave an excess molar enthalpy (x2 = 0.395) of -0.066 ± 0.00239 kcal/mol, an excess molar enthalpy (x2 = 0.4373) of -0.0664 ± 0.00239 kcal/mol and an excess molar enthalpy (x2 = 0.5003) of -0.0654 ± 0.00239 kcal/mol. The excess molar enthalpy (x2 = 0.595) was -0.0605 ± 0.00239 kcal/mol, the excess molar enthalpy (x2 = 0.6575) was -0.0553 ± 0.00239 kcal/mol and the excess molar enthalpy (x2 = 0.6989) was -0.0511 ± 0.00239 kcal/mol. The excess molar enthalpy (x2 = 0.7967) was -0.038 ± 0.00239 kcal/mol and the excess molar enthalpy (x2 = 0.8992) was -0.0205 ± 0.00239 kcal/mol.
